The values below are quoted from earlier work in patent US5041577A, “Organogermanium compounds, processes for producing the same, and agent for inhibiting the activity of opioid peptide-degrading enzyme” (Asai Germanium Research Institute Co., Ltd., priority 1989, dated 1991).

For data set [1], the system named is spontaneous hypertensive rats.

As to `O=C(O)C[CH2][Ge](=[O])[O][Ge](=[O])[CH2]CC(=O)O` [carboxyethylgermanium sesquioxide], the antitumor action result with tumor is “antitumor action”. Further, in the data set on interferon, the interferon-inducing action result was “interferon-inducing action”. In the data set with macrophage, the macrophage-augmenting action entry is listed as “macrophage-augmenting action”. Moreover, the hypotensive action result in data set [1] is listed as “shows a hypotensive action”. Also, the amyloidosis-alleviating action result in the data set on amyloidosis is reported as “amyloidosis-alleviating action”.
